Reference: patent US20250144067A1, “PERSONALIZED STARVATION THERAPY FOR CANCER” (Faeth Therapeutics, Inc., priority 2021, published 2025)
Counter-ions that a name gives are not always drawn.

Key:
[1] = test system: NCI-H292 lung cancer cells; test: FDA drug screening, complete media vs cholesterol-free media without statin (TABLE 1); assay type: cell-based, human
[2] = test system: NCI-H292 lung cancer cells; test: FDA drug screening, complete media vs cholesterol-free media with simvastatin (TABLE 2); assay type: cell-based, human; details: for Cholesterol-free media + simvastatin (0.04 μM) / Complete Media: NCI-H292 cells
[3] = Complete minus Cholesterol-free, […]
[4] = NCI-H292 cells, FDA drug library screen, cholesterol-free media without statin
[5] = NCI-H292 cells, FDA drug library screen, complete media
[6] = FDA drug library screen, cholesterol-free media with simvastatin 0.04 μM
[7] = FDA drug library screen, complete media
[8] = Complete minus Cholesterol-free, greater than 0 enhanced anti-cancer activity, about 0 neutral, below 0 antagonist
[9] = complete media vs cholesterol-free media + simvastatin (0.04 μM), >0 enhanced anti-cancer activity, about 0 neutral, <0 antagonist
[10] = NCI-H292 cells, cholesterol-free media without statin, FDA drug library screen
[11] = NCI-H292 cells, complete media, FDA drug library screen
[12] = complete vs cholesterol-free media, >0 enhanced anti-cancer activity, about 0 neutral, <0 antagonist
[13] = drug in cholesterol-free media with simvastatin 0.04 μM
[14] = NCI-H292 cells, cholesterol-free media without statin
[15] = cholesterol-free media with simvastatin 0.04 μM, FDA drug library screen (TABLE 2)
[16] = complete media, FDA drug library screen (TABLE 2)
[17] = complete media minus cholesterol-free media + simvastatin (0.04 μM), >0 enhanced anti-cancer activity, about 0 neutral, <0 antagonist
[18] = Complete minus Cholesterol-free, greater than 0 enhanced anti-cancer activity, about 0 neutral, below 0 antagonists
[19] = NCI-H292 cells in cholesterol-free media without statin
[20] = NCI-H292 cells in complete media
[21] = cholesterol-free media with simvastatin 0.04 μM, cell growth value in FDA drug screen
[22] = complete media, cell growth value in FDA drug screen
[23] = complete media minus cholesterol-free media + simvastatin, >0 enhanced anti-cancer activity, about 0 neutral, <0 antagonist
[24] = complete vs cholesterol-free media, greater than 0 enhanced anti-cancer activity, about 0 neutral, below 0 antagonists
[25] = FDA library drug in cholesterol-free media with simvastatin 0.04 μM
[26] = FDA library drug in complete media
[27] = Complete minus Cholesterol-free, >0 enhanced anti-cancer activity, about 0 neutral, <0 antagonist

Compound | Cholesterol-free media + simvastatin (0.04 μM) [2, 6] | Complete Media [2, 7] | Difference [2, 9] | Cholesterol-free [1, 10] | Complete [1, 11] | Difference [1, 12] | Difference [2, 23] | also measured
NCC[C@H](O)C(=O)N[C@@H]1C[C@H](N)[C@@H](O[C@H]2O[C@H](CN)[C@@H](O)[C@H](O)[C@H]2O)[C@H](O)[C@H]1O[C@H]1O[C@H](CO)[C@@H](O)[C@H](N)[C@H]1O [Amikacin (disulfate)] | 0.8392 | 1.245 | – | – | – | – | – | Difference [1, 3]: −0.09; Cholesterol-free [1, 4]: 0.9569; Complete [1, 5]: 0.8685; Difference ([2]; complete media minus cholesterol-free media + simvastatin, […]): 0.41
N=C(N)NC(=O)c1nc(Cl)c(N)nc1N [Amiloride (hydrochloride)] | 1.016 | 0.8717 | −0.14 | – | – | – | – | Difference [1, 8]: −0.17; Cholesterol-free [1, 4]: 1.642; Complete [1, 5]: 1.47
N=C(N)NC(=O)c1nc(Cl)c(N)nc1N [Amiloride hydrochloride dihydrate] | – | – | −0.16 | 0.9043 | 1.06 | 0.16 | – | Cholesterol-free media + simvastatin (0.04 μM) [2, 13]: 1.232; Complete Media ([2]; drug in complete media): 1.07
Nc1ccc(C(=O)NCC(=O)[O-])cc1.[Na+] [Aminohippurate (sodium)] | – | – | – | – | – | – | – | Difference [1, 3]: −0.25; Cholesterol-free [1, 14]: 1.249; Complete ([1]; NCI-H292 cells, complete media): 0.9961; Cholesterol-free media + simvastatin (0.04 μM) [2, 13]: 1.368; Complete Media ([2]; drug in complete media): 1.199; Difference ([2]; complete media vs cholesterol-free media + simvastatin (0.04 μM), […]): −0.17
Cn1c(=O)c2[nH]cnc2n(C)c1=O [Aminophylline] | – | – | – | – | – | – | – | Difference [1, 8]: −0.14; Cholesterol-free [1, 4]: 0.9006; Complete [1, 5]: 0.7581; Cholesterol-free media + simvastatin (0.04 μM) [2, 15]: 0.918; Complete Media [2, 16]: 0.8588; Difference [2, 17]: −0.06
CCCCc1oc2ccccc2c1C(=O)c1cc(I)c(OCCN(CC)CC)c(I)c1 [Amiodarone (hydrochloride)] | – | – | – | – | – | – | 0.03 | Difference [1, 18]: −0.67; Cholesterol-free [1, 19]: 1.555; Complete [1, 20]: 0.8858; Cholesterol-free media + simvastatin (0.04 μM) [2, 21]: 1.081; Complete Media [2, 22]: 1.107
CCN1CCCC1CNC(=O)c1cc(S(=O)(=O)CC)c(N)cc1OC (stereo not drawn) [Amisulpride] | – | – | – | 1.175 | 1.349 | 0.17 | 0.06 | Cholesterol-free media + simvastatin (0.04 μM) [2, 21]: 0.8703; Complete Media [2, 22]: 0.9333
CN(C)CCC=C1c2ccccc2CCc2ccccc21 [Amitriptyline (hydrochloride)] | 0.9551 | 0.8184 | −0.14 | 0.8567 | 1.344 | 0.49 | – | –
CC(C)c1ccc2oc3nc(N)c(C(=O)O)cc3c(=O)c2c1 [Amlexanox] | 0.7766 | 1.161 | – | – | – | – | 0.38 | Cholesterol-free [1, 14]: 1.264; Complete ([1]; NCI-H292 cells, complete media): 0.8551; Difference [1, 24]: −0.41
CCOC(=O)C1=C(COCCN)NC(C)=C(C(=O)OC)C1c1ccccc1Cl (stereo not drawn) [Amlodipine] | 1.424 | 1.705 | – | 0.797 | 1.434 | 0.64 | 0.28 | –
CCN(CC)Cc1cc(Nc2ccnc3cc(Cl)ccc23)ccc1O [Amodiaquine (dihydrochloride dihydrate)] | 1.209 | 1.606 | – | 0.9158 | 1.353 | 0.44 | 0.40 | –
CCN(CC)Cc1cc(Nc2ccnc3cc(Cl)ccc23)ccc1O [Amodiaquine (dihydrochloride)] | – | – | −0.71 | – | – | – | – | Cholesterol-free [1, 14]: 1.475; Complete ([1]; NCI-H292 cells, complete media): 1.037; Difference [1, 24]: −0.44; Cholesterol-free media + simvastatin (0.04 μM) [2, 25]: 1.766; Complete Media [2, 26]: 1.059
CCC(C)(C)c1ccc(CC(C)CN2C[C@@H](C)O[C@@H](C)C2)cc1 (stereo partly drawn) [Amorolfine (hydrochloride)] | 0.4078 | 1.021 | – | – | – | – | 0.61 | Cholesterol-free [1, 14]: 1.233; Complete ([1]; NCI-H292 cells, complete media): 0.8449; Difference [1, 24]: −0.39
Clc1ccc2c(c1)C(N1CCNCC1)=Nc1ccccc1O2 [Amoxapine] | – | – | −0.57 | 1.3 | 1.39 | 0.09 | – | Cholesterol-free media + simvastatin (0.04 μM) [2, 25]: 1.586; Complete Media [2, 26]: 1.017
CC1(C)S[C@@H]2[C@H](NC(=O)[C@H](N)c3ccc(O)cc3)C(=O)N2[C@H]1C(=O)[O-].[Na+] [Amoxicillin (sodium)] | – | – | −0.18 | – | – | – | – | Difference [1, 8]: −0.16; Cholesterol-free [1, 4]: 0.8965; Complete [1, 5]: 0.7329; Cholesterol-free media + simvastatin (0.04 μM) [2, 13]: 0.9358; Complete Media ([2]; drug in complete media): 0.759
CC1(C)S[C@@H]2[C@H](NC(=O)[C@H](N)c3ccc(O)cc3)C(=O)N2[C@H]1C(=O)O [Amoxicillin (trihydrate)] | 0.7666 | 1.02 | – | 0.8623 | 0.9771 | 0.11 | 0.25 | –
CC1(C)S[C@@H]2[C@H](NC(=O)[C@H](N)c3ccc(O)cc3)C(=O)N2[C@H]1C(=O)O [Amoxicillin] | 0.9948 | 1.386 | – | 0.9555 | 1.159 | 0.20 | 0.39 | –
C[C@@H]1[C@H](O)[C@@H](C)/C=C/C=C/C=C/C=C/C=C/C=C/C=C/[C@H](O[C@@H]2O[C@H](C)[C@@H](O)[C@H](N)[C@@H]2O)C[C@@H]2O[C@](O)(C[C@@H](O)C[C@@H](O)[C@H](O)CC[C@@H](O)C[C@@H](O)CC(=O)O[C@H]1C)C[C@H](O)[C@H]2C(=O)O [Amphotericin B] | – | – | −0.26 | 1.082 | 1.128 | – | – | Difference [1, 27]: 0.05; Cholesterol-free media + simvastatin (0.04 μM) [2, 13]: 1.212; Complete Media ([2]; drug in complete media): 0.9521
CC1(C)S[C@@H]2[C@H](NC(=O)[C@H](N)c3ccccc3)C(=O)N2[C@H]1C(=O)[O-].[Na+] [Ampicillin (sodium)] | – | – | −0.22 | – | – | – | – | Cholesterol-free [1, 14]: 1.356; Complete ([1]; NCI-H292 cells, complete media): 0.9032; Difference [1, 24]: −0.45; Cholesterol-free media + simvastatin (0.04 μM) [2, 13]: 1.087; Complete Media ([2]; drug in complete media): 0.8623
CC1(C)S[C@@H]2[C@H](NC(=O)[C@H](N)c3ccccc3)C(=O)N2[C@H]1C(=O)O [Ampicillin] | – | – | −0.31 | 0.9318 | 1.363 | 0.43 | – | Cholesterol-free media + simvastatin (0.04 μM) [2, 25]: 1.07; Complete Media [2, 26]: 0.7564
CCOC(=O)OC(C)OC1=C(C(=O)Nc2ccccn2)N(C)S(=O)(=O)c2ccccc21 (stereo not drawn) [Ampiroxicam] | – | – | – | 0.9909 | 0.9596 | – | 0.07 | Difference [1, 27]: −0.03; Cholesterol-free media + simvastatin (0.04 μM) [2, 21]: 1.311; Complete Media [2, 22]: 1.382
CC(C)CN(C[C@@H](O)[C@H](Cc1ccccc1)NC(=O)O[C@H]1CCOC1)S(=O)(=O)c1ccc(N)cc1 [Amprenavir] | 1.669 | 1.996 | – | 0.8915 | 1.403 | 0.51 | 0.33 | –
Nc1cc(-c2ccncc2)c[nH]c1=O [Amrinone] | – | – | −0.21 | – | – | – | – | Difference [1, 18]: −0.48; Cholesterol-free [1, 19]: 1.339; Complete [1, 20]: 0.861; Cholesterol-free media + simvastatin (0.04 μM) [2, 13]: 1.157; Complete Media ([2]; drug in complete media): 0.9441
COc1cc(NS(C)(=O)=O)ccc1Nc1c2ccccc2nc2ccccc12 [Amsacrine (hydrochloride)] | – | – | −0.44 | 0.2374 | 0.2416 | – | – | Difference [1, 27]: 0.00; Cholesterol-free media + simvastatin (0.04 μM) [2, 25]: 0.8278; Complete Media [2, 26]: 0.3873
COc1cc(NS(C)(=O)=O)ccc1Nc1c2ccccc2nc2ccccc12 [Amsacrine] | – | – | – | – | – | – | – | Difference [1, 27]: −0.20; Cholesterol-free [1, 14]: 0.3482; Complete ([1]; NCI-H292 cells, complete media): 0.1517; Cholesterol-free media + simvastatin (0.04 μM) [2, 15]: 0.3844; Complete Media [2, 16]: 0.346; Difference [2, 17]: −0.04
Cc1cc2ncc(C(=O)NCC(C)(C)NCC(=O)N3CCC[C@H]3C#N)cn2n1 [Anagliptin] | 1.09 | 0.9692 | −0.12 | – | – | – | – | Difference [1, 27]: −0.23; Cholesterol-free [1, 14]: 1.234; Complete ([1]; NCI-H292 cells, complete media): 1.003
O=C1CN2Cc3c(ccc(Cl)c3Cl)N=C2N1 [Anagrelide (hydrochloride)] | – | – | −0.27 | – | – | – | – | Difference [1, 27]: −0.26; Cholesterol-free [1, 14]: 0.988; Complete ([1]; NCI-H292 cells, complete media): 0.7326; Cholesterol-free media + simvastatin (0.04 μM) [2, 25]: 1.221; Complete Media [2, 26]: 0.9483
